Experimental data from patent US10759813B2, “Neprilysin inhibitors” (THERAVANCE BIOPHARMA R&D IP, LLC, priority 2010, dated 2020).

Biological target: human neprilysin (EC 3.4.24.11; NEP) (Homo sapiens (Human), UniProt P08473)
Experiment: In vitro enzyme inhibition assay at human NEP (fluorogenic peptide substrate)
Format: biochemical
Conditions: pKi values at human NEP, recombinant human NEP
Procedure: In Vitro Assays for the Quantitation of Inhibitor Potencies at Human and Rat NEP, and Human ACE
The inhibitory activities of compounds at human and rat neprilysin (EC 3.4.24.11; NEP) and human angiotensin converting enzyme (ACE) were determined using in vitro assays as described below.
Recombinant human NEP and recombinant human ACE were obtained commercially (R&D Systems, Minneapolis, Minn., catalog numbers 1182-ZN and 929-ZN, respectively). The fluorogenic peptide substrate Mca-D-Arg-Arg-Leu-Dap-(Dnp)-OH (Medeiros et al. (1997) Braz. J. Med. Biol. Res. 30:1157-62; Anaspec, San Jose, Calif.) and Abz-Phe-Arg-Lys(Dnp)-Pro-OH (Araujo et al. (2000) Biochemistry 39:8519-8525; Bachem, Torrance, Calif.) were used in the NEP and ACE assays respectively.
The assays were performed in 384-well white opaque plates at 37° C. using the fluorogenic peptide substrates at a concentration of 10 μM in Assay Buffer (NEP: 50 mM HEPES, pH 7.5, 100 mM NaCl, 0.01% polyethylene glycol sorbitan monolaurate (Tween-20), 10 μM ZnSO4; ACE: 50 mM HEPES, pH 7.5, 100 mM NaCl, 0.01% Tween-20, 1 μM ZnSO4).
Test compounds were assayed over the range of concentrations from 10 μM to pM. Test compounds were added to the enzymes and incubated for 30 minute at 37° C. prior to initiating the reaction by the addition of substrate. Reactions were terminated after 20 minutes of incubation at 37° C. by the addition of glacial acetic acid to a final concentration of 3.6% (v/v).
Plates were read on a fluorometer with excitation and emission wavelengths set to 320 nm and 405 nm, respectively. Inhibition constants were obtained by nonlinear regression of the data using the equation (GraphPad Software, Inc., San Diego, Calif.): v=v0/[1+(I/K′)] where v is the reaction rate, v0 is the uninhibited reaction rate, I is the inhibitor concentration and K′ is the apparent inhibition constant.
Compounds of the invention were tested in this assay and found to have pKi values at human NEP as follows.

human neprilysin (EC 3.4.24.11; NEP), sequence (P08473 52-750): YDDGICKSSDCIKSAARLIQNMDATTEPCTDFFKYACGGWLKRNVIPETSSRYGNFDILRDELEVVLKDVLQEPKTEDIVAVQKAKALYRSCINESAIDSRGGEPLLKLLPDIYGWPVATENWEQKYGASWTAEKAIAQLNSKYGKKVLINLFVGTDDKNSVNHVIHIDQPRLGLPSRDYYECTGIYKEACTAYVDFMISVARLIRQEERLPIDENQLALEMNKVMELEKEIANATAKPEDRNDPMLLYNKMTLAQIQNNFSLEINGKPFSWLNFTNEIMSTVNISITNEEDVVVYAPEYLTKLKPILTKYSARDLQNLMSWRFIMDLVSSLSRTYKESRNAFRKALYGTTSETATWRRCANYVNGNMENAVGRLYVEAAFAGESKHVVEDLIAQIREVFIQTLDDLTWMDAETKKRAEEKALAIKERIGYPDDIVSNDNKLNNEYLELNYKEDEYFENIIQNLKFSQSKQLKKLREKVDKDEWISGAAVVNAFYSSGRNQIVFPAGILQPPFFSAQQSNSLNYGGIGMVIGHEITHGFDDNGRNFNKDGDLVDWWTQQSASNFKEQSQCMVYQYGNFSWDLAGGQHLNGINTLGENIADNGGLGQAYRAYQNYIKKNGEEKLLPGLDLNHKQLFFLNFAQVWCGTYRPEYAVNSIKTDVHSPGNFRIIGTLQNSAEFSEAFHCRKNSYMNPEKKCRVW

| Ki | pKi | SMILES |
| --- | --- | --- |
| 1.26 to 10 nM | – | O=C(N[C@H](Cc1ccc(-c2ccccc2)cc1)CC(O)C(=O)O)c1cc(-c2ccccc2)n[nH]1 (stereo partly drawn) [Example 15-76, (R)-5-Biphenyl-4-yl-2-hydroxy-4-[(5-phenyl-2H-pyrazole-3-carbonyl)-amino]-pentanoic acid] |
| 12.6 to 100 nM | – | O=C(N[C@H](Cc1ccc(-c2ccccc2)cc1)CC(O)C(=O)O)c1ccc(O)nn1 (stereo partly drawn) [Example 13-5, (R)-5-Biphenyl-4-yl-2-hydroxy-4-[(6-hydroxypyridazine-3-carbonyl)-amino]-pentanoic acid] |
| 1.26 to 10 nM | – | O=C(O)CCn1nc(C(=O)N[C@H](Cc2ccc(-c3ccccc3)cc2)C[C@@H](O)C(=O)O)cc1-c1ccccc1 [Example 15-36, (2R,4R)-5-Biphenyl-4-yl-4-{[1-(2-carboxy-ethyl)-5-phenyl-1H-pyrazole-3-carbonyl]-amino}-2-hydroxy-pentanoic acid] |
| – | ≥9.0 | O=C(O)Cn1nc(C(=O)N[C@H](Cc2ccc(-c3ccccc3)cc2)C[C@@H](O)C(=O)O)cc1-c1ccccc1 [Example 15-35, (2R,4R)-5-Biphenyl-4-yl-4-[(1-carboxymethyl-5-phenyl-1H-pyrazole-3-carbonyl)-amino]-2-hydroxy-pentanoic acid] |
| – | ≥9.0 | O=C(N[C@H](Cc1ccc(-c2cccc(Cl)c2)cc1)C[C@@H](O)C(=O)O)c1nn(-c2ccc(F)cc2)c(=O)[nH]1 [Example 18-44, (2R,4R)-5-(3′-Chloro-biphenyl-4-yl)-4-{[1-(4-fluoro-phenyl)-5-oxo-4,5-dihydro-1H-[1,2,4]triazole-3-carbonyl]-amino}-2-hydroxy-pentanoic acid] |
| 1.26 to 10 nM | – | O=C(N[C@H](Cc1ccc(-c2ccccc2)cc1)CC(O)C(=O)O)c1ccc2[nH]nnc2c1Cl (stereo partly drawn) [Example 11-7, (R)-5-Biphenyl-4-yl-4-[(4-chloro-1H-benzotriazole-5-carbonyl)amino]-2-hydroxy-pentanoic acid] |
| – | ≥9.0 | Cc1cccc(-c2ccc(C[C@@H](C[C@H](O)C(=O)O)NC(=O)c3ccc4nnn(O)c4c3)cc2)c1 [Example 23-1, (2S,4S)-2-Hydroxy-4-[(3-hydroxy-3H-benzotriazole-5-carbonyl)-amino]-5-(3′-methyl-biphenyl-4-yl)-pentanoic acid] |
| – | ≥9.0 | O=C(N[C@H](Cc1ccc(-c2ccccc2)cc1)C[C@@H](O)C(=O)O)c1cc(-c2ccc(Cl)cc2)no1 [Example 12-4, (2R,4R)-5-Biphenyl-4-yl-4-{[3-(4-chlorophenyl)-isoxazole-5-carbonyl]-amino}-2-hydroxy-pentanoic acid] |
| – | ≥9.0 | O=C(N[C@H](Cc1ccc(-c2ccccc2)cc1)C[C@@H](O)C(=O)O)c1cc(O)no1 [Example 7-B, (2R,4R)-5-Biphenyl-4-yl-2-hydroxy-4-[(3-hydroxyisoxazole-5-carbonyl)amino]pentanoic Acid] |
| 1.26 to 10 nM | – | O=C(N[C@H](Cc1ccc(-c2ccccc2)cc1Cl)C[C@@H](O)C(=O)O)c1cc(-c2ccccn2)n[nH]1 [Example 20-9, (2R,4R)-5-(3-Chloro-biphenyl-4-yl)-2-hydroxy-4-[(5-pyridin-2-yl-2H-pyrazole-3-carbonyl)-amino]-pentanoic acid] |
| – | ≥9.0 | O=C(N[C@H](Cc1ccc(-c2cc(Cl)ccc2Cl)cc1)C[C@@H](O)C(=O)O)c1cn(O)nn1 [Example 19-1, (2R,4R)-5-(2′,5′-Dichlorobiphenyl-4-yl)-2-hydroxy-4-[(1-hydroxy-1H-[1,2,3]triazole-4-carbonyl)-amino]-pentanoic acid] |
| – | ≥9.0 | O=C(N[C@H](Cc1ccc(-c2ccccc2)cc1Cl)C[C@@H](O)C(=O)O)c1nn(-c2cccc(Cl)c2)c(=O)[nH]1 [Example 20-3, (2R,4R)-5-(3-Chloro-biphenyl-4-yl)-4-{[1-(3-chloro-phenyl)-5-oxo-4,5-dihydro-1H-[1,2,4]triazole-3-carbonyl]-amino}-2-hydroxy-pentanoic acid] |
| – | ≥9.0 | O=C(N[C@H](Cc1ccc(-c2ccccc2)cc1)C[C@@H](O)C(=O)O)c1cc(C2CCCCC2)no1 [Example 12-7, (2R,4R)-5-Biphenyl-4-yl-4-[(3-cyclohexyl-isoxazole-5-carbonyl)-amino]-2-hydroxy-pentanoic acid] |
| – | ≥9.0 | COc1ccccc1C(=O)Nc1cc(C(=O)N[C@H](Cc2ccc(-c3ccccc3)cc2)C[C@@H](O)C(=O)O)on1 [Example 12-5, (2R,4R)-5-Biphenyl-4-yl-2-hydroxy-4-{[3-(2-methoxy-benzoylamino)-isoxazole-5-carbonyl]-amino}-pentanoic acid] |
| – | ≥9.0 | O=C(N[C@@H](Cc1ccc(-c2cc(Cl)ccc2Cl)cc1)C[C@H](O)C(=O)O)c1ccc2nnn(O)c2c1 [Example 23-4, (2S,4S)-5-(2′,5′-Dichlorobiphenyl-4-yl)-2-hydroxy-4-[(3-hydroxy-3H-benzotriazole-5-carbonyl)-amino]-pentanoic acid] |
| 1.26 to 10 nM | – | O=C(N[C@H](Cc1ccc(-c2ccccc2)cc1)CC(O)C(=O)O)c1cc(C(=O)O)n(Cc2ccccc2Cl)n1 (stereo partly drawn) [Example 15-9, 5-((R)-1-Biphenyl-4-ylmethyl-3-carboxy-3-hydroxy-propylcarbamoyl)-2-(2-chlorobenzyl)-2H-pyrazole-3-carboxylic acid] |
| – | ≥9.0 | COc1ccc(OC)c(-c2cc(C(=O)N[C@H](Cc3ccc(-c4ccccc4)cc3)C[C@@H](O)C(=O)O)[nH]n2)c1 [Example 15-80, (2R,4R)-5-Biphenyl-4-yl-4-{[5-(2,5-dimethoxy-phenyl)-2H-pyrazole-3-carbonyl]-amino}-2-hydroxy-pentanoic acid] |
| – | ≥9.0 | O=C(N[C@H](Cc1ccc(-c2ccccc2)cc1Cl)C[C@@H](O)C(=O)O)c1cc(-c2cccnc2)n[nH]1 [Example 20-8, (2R,4R)-5-(3-Chloro-biphenyl-4-yl)-2-hydroxy-4-[(5-pyridin-3-yl-2H-pyrazole-3-carbonyl)-amino]-pentanoic acid] |
| – | ≥9.0 | O=C(N[C@@H](Cc1ccc(-c2cccc(Cl)c2)cc1)C[C@@H](O)C(=O)O)c1cc(O)n(-c2cccc(Cl)c2)n1 [Example 18-39, (2R,4S)-5-(3′-Chloro-biphenyl-4-yl)-4-{[1-(3-chloro-phenyl)-5-hydroxy-1H-pyrazole-3-carbonyl]-amino}-2-hydroxy-pentanoic acid] |
| – | ≥9.0 | CC(=O)c1cc(C(=O)N[C@H](Cc2ccc(-c3cccc(Cl)c3)cc2)C[C@@H](O)C(=O)O)on1 [Example 18-7, (2R,4R)-4-[(3-Acetyl-isoxazole-5-carbonyl)-amino]-5-(3′-chlorobiphenyl-4-yl)-2-hydroxy-pentanoic acid] |
| 1.26 to 10 nM | – | O=C(N[C@H](Cc1ccc(-c2ccccc2)cc1)CC(O)C(=O)O)c1ccc2[nH]nnc2c1 (stereo partly drawn) [Example 11-3, (R)-4-[(1H-Benzotriazole-5-carbonyl)amino]-5-biphenyl-4-yl-2-hydroxypentanoic acid] |
| – | ≥9.0 | O=C(N[C@H](Cc1ccc(-c2ccccc2)cc1)C[C@@H](O)C(=O)O)c1cc(-c2ccccc2Cl)n[nH]1 [Example 15-84, (2R,4R)-5-Biphenyl-4-yl-4-{[5-(2-chlorophenyl)-2H-pyrazole-3-carbonyl]amino}-2-hydroxy-pentanoic acid] |
| – | ≥9.0 | CC(C)(O)c1cc(C(=O)N[C@H](Cc2ccc(-c3cccc(Cl)c3)cc2)C[C@@H](O)C(=O)O)on1 [Example 18-13, (2R,4R)-5-(3′-Chloro-biphenyl-4-yl)-2-hydroxy-4-{[3-(1-hydroxy-1-methyl-ethyl)-isoxazole-5-carbonyl]-amino}-pentanoic acid] |
| – | ≥9.0 | O=C(N[C@H](Cc1ccc(-c2cccc(Cl)c2)cc1)C[C@@H](O)C(=O)O)c1cc(-c2ccccc2Cl)on1 [Example 18-15, (2R,4R)-5-(3′-Chlorobiphenyl-4-yl)-4-{[5-(2-chlorophenyl)-isoxazole-3-carbonyl]-amino}-2-hydroxy-pentanoic acid] |
| – | ≥9.0 | Cc1ccc(-c2cc(C(=O)N[C@H](Cc3ccc(-c4ccccc4)cc3)C[C@@H](O)C(=O)O)[nH]n2)s1 [Example 15-89, (2R,4R)-5-Biphenyl-4-yl-2-hydroxy-4-{[5-(5-methylthiophen-2-yl)-2H-pyrazole-3-carbonyl]-amino}-pentanoic acid] |
| 12.6 to 100 nM | – | O=C(O)c1ccc(Cn2nnc3cc(C(=O)N[C@H](Cc4ccc(-c5ccccc5)cc4)C[C@H](O)C(=O)O)ccc32)cc1 [Example 11-2, 4-[5-((1R,3S)-1-Biphenyl-4-ylmethyl-3-carboxy-3-hydroxypropylcarbamoyl)-benzotriazol-1-ylmethyl]-benzoic acid] |
| – | ≥9.0 | O=C(N[C@H](Cc1ccc(-c2ccccc2)cc1)C[C@@H](O)C(=O)O)c1cc(-c2ccccc2O)n(CC(O)CO)n1 (stereo partly drawn) [Example 15-30, (2R,4R)-5-Biphenyl-4-yl-4-{[1-(2,3-dihydroxy-propyl)-5-(2-hydroxy-phenyl)-1H-pyrazole-3-carbonyl]-amino}-2-hydroxy-pentanoic acid] |
